The source of these data is publication PMC5030144 (Nature chemical biology, 2016).

Several values for one entry are separate records, joined by “and”; a condition that tells them apart may be missing. Equal values may be shown once.

Assay [1] has as its target T1, RMS3 (Pisum sativum, UniProt A0A109QYD3).
T1 sequence (A0A109QYD3 1-267): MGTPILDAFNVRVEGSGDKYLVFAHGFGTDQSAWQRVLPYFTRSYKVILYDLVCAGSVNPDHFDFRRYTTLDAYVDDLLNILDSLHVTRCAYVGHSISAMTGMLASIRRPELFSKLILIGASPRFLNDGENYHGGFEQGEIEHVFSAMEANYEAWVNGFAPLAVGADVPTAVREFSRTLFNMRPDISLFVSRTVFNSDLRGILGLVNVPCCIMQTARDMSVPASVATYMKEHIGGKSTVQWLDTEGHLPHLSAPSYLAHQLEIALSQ
Description: Intrinsic tryptophan fluorescence, apparent dissociation coefficient. The conditions noted are these: apparent Kd from intrinsic fluorescence, mean ± SE of two replicates. Format: binding.

Assay [2] deals with T1, RMS3. The assay can be described thus: Differential scanning fluorimetry. Format: binding. The conditions noted are these: DSF. On the technique in general: DSF heats the sample and reads unfolding from a dye or from intrinsic fluorescence.
In assay [3] the target is T1, RMS3. Description: Competition test with. It is filed as biochemical.

In general, Ki refers to the dissociation constant of the complex between target and ligand, obtained from inhibition or displacement.

For the compound `O=C1C=CC(OC=C2C(=O)OC3c4ccccc4CC23)O1` (racemic) [(±)-4’-desmethyl-2’-epi-GR24], the Kd on RMS3 [1] was 296 ± 27.9 µM. Also, the “shift in RMS3 melting temperature (destabilization)” value (“shift in RMS3 melting temperature” for short) at RMS3 [2] is listed as “no shift”.
With `O=C1OC2c3ccccc3CC2/C1=C\O` (racemic) [(±)-ABC], the Kd on RMS3 [1] was determined as 271 ± 29.8 µM. Further, the “mode of inhibition of (±)-GC242 hydrolysis” value on RMS3 [3] (RMS3) was “competitive inhibitor”. This compound also returned a Ki at RMS3 [3] (RMS3, competition test with (±)-GC242, mean ± SE of three replicates) of 28.8 ± 17.6 µM. The “shift in RMS3 melting temperature” value at RMS3 [2] is “no shift”.
For `CC1=C(C)C(OC=C2C(=O)OC3c4ccccc4CC23)OC1=O` (racemic) [(±)-3’-Me-GR24], the Kd on RMS3 [1] turned out to be 30.9 ± 5.2 µM.
As for `Cc1cc(=O)oc2c(F)c(O)c(F)cc12` [DiFMU, 6,8-difluoro-7-hydroxy-4-methylcoumarin], the Kd on RMS3 [1] (Kd) is 20 µM and 19.9 µM. On RMS3 [2], the “shift in RMS3 melting temperature” value is reported as “small stabilization”.
